# Measurements from article PMC5671890 (Journal of molecular medicine (Berlin, Germany), 2017).
# Counter-ions that a name gives are not always drawn. Positions of bridges follow the written chain, without caps; N, C: chain ends. Non-standard residues stand in square brackets, D forms with d. Residues, ends and D or L forms follow the SMILES beside them. *: point of attachment. X1 = CC[C@H](C)CCCCC(=O)*; Dab = NCC[C@H](N)C(=O)O
# How the values were obtained:
# Type in all cases: cell-based
# Conditions in all cases: cation-adjusted Mueller Hinton broth, serial 2-fold dilutions, repeated 3 times
# [1] = test system: Pseudomonas aeruginosa PAO1 vacJ−:vacJ complemented strain
# [2] = test system: Pseudomonas aeruginosa PAO1 Wt
# [3] = test system: Pseudomonas aeruginosa PAO1 vacJ− mutant
SMILES,MIC [1],MIC [2],MIC [3]
"CC[C@H](C)CCCCC(=O)N[C@@H](CCN)C(=O)N[C@H](C(=O)N[C@@H](CCN)C(=O)N[C@H]1CCNC(=O)[C@H]([C@@H](C)O)NC(=O)[C@H](CCN)NC(=O)[C@H](CCN)NC(=O)[C@H](CC(C)C)NC(=O)[C@@H](CC(C)C)NC(=O)[C@H](CCN)NC1=O)[C@@H](C)O [Colistin, colistin sulfate] (X1-[Dab]T[Dab][Dab][Dab][dL]L[Dab][Dab]T; lactam 4-C (inferred); N-terminus assumed)",1 µg/mL,1 µg/mL,0.5 µg/mL
CC[C@H](C)CCCCC(=O)N[C@@H](CCN)C(=O)N[C@H](C(=O)N[C@@H](CCN)C(=O)N[C@H]1CCNC(=O)[C@H]([C@@H](C)O)NC(=O)[C@H](CCN)NC(=O)[C@H](CCN)NC(=O)[C@H](CC(C)C)NC(=O)[C@@H](Cc2ccccc2)NC(=O)[C@H](CCN)NC1=O)[C@@H](C)O [Polymyxin B] (X1-[Dab]T[Dab][Dab][Dab][dF]L[Dab][Dab]T; lactam 4-C (inferred); N-terminus assumed),0.5 µg/mL,0.5 µg/mL,0.25 µg/mL
